Measured values taken from patent US6936600B2, “Sorbitol dehrydrogenase inhibitors” (Pfizer Inc, priority 1999, dated 2005).

First: O=S(=O)(N1CCCC1)N1CCN(c2ccnc(CO)n2)CC1 [Example 121, {4-[4-(Pyrrolidine-1-sulfonyl)-piperazin-1-yl]-pyrimidin-2-yl}-methanol]
Second: O=S(=O)(N1CCCCC1)N1CCN(c2ccnc(CO)n2)CC1 [Example 123]
The melting point of the first is lower: 128 to 131 °C for the first, 141 to 142 °C for the second.

Compared with C[C@@H](O)c1nccc(N2CCc3ccc(S(=O)(=O)N(C)C)cc3C2)n1 [Example 247, (R)-2-[2-(1-Hydroxy-ethyl)-pyrimidin-4-yl]-1,2,3,4-tetrahydro-isoquinoline-7-sulfonic acid dimethylamide], C[C@@H](O)c1nccc(N2CCc3cc(-c4ccsc4)ccc3C2)n1 (stereo in doubt) [Example 248, 1-[4-(6-Thiophen-3-yl-3,4-dihydro-1H-isoquinolin-2-yl)-pyrimidin-2-yl]-ethanol] is higher in melting point: 120.5 to 122 °C for the first, 125.5 to 127.5 °C for the second.

First: C[C@@H](O)c1nccc(N2CCC(=Cc3cccc(Cl)c3)CC2)n1 [Example 176, (R)-1-{4-[4-(3-Chlorobenzylidene)-piperidin-1-yl]-pyrimidin-2-yl}-ethanol]
Second: C[C@@H](O)c1nccc(N2CCN(S(=O)(=O)/C=C/c3ccccc3)CC2)n1 [Example 111, (E)-1-R{4-[4-(2-phenyl-ethenesulfonyl)-piperazin-1-yl]-pyrimidin-2-yl}-ethanol]
The melting point of the first is lower: 45 to 55 °C for the first, 68 to 70 °C for the second.

Compared with C[C@@H](O)c1nccc(N2CCc3nc(-c4ccccc4)ncc3C2)n1 [Example 257], C[C@@H](O)c1nccc(N2CCc3cnc(-c4ccccc4)nc3C2)n1 [Example 87] is lower in melting point: 128 to 131 °C for the first, 72 to 74 °C for the second.

First: C[C@@H]1CN(c2nccc(-n3cncn3)n2)C[C@H](C)N1c1ccnc([C@@H](C)O)n1 [Example 196, 1R-{4-[2R,6S-Dimethyl-4-(4-[1,2,4]triazol-1-yl-pyrimidin-2-yl)-piperazin-1-yl]-pyrimidin-2-yl}-ethanol]
Second: CC(=O)c1nccc(N2C[C@@H](C)N(c3ccnc([C@@H](C)O)n3)[C@@H](C)C2)n1 [Example 46, 1-(4-{4-[2-(1R-Hydroxy-ethyl)-pyrimidin-4-yl]-3R,5S-dimethyl-piperazin-1-yl}-pyrimidin-2-yl)-ethanone]
The melting point of the first is higher: 181 to 182 °C for the first, 150 to 164 °C for the second.

First: C[C@@H](O)c1nccc(N2CCc3nc(N)ncc3C2)n1 [Example 256]
Second: C[C@@H](O)c1nccc(N2CCc3ncncc3C2)n1 [Example 253]
The melting point of the first is higher: 208 to 210 °C for the first, 79 to 82 °C for the second.

Compared with C[C@@H](O)c1nccc(N2CCn3c(nnc3-c3ccccc3)C2)n1 [Example 260], C[C@@H](O)c1nccc(N2CCn3c(nnc3-c3cc4ccccc4s3)C2)n1 [Example 262] is higher in melting point: 161 to 164 °C for the first, 224 to 226 °C for the second.

First: C[C@@H](O)c1nccc(N2CCn3c(nnc3-c3ccc4nccnc4c3)C2)n1 [Example 261]
Second: C[C@@H](O)c1nccc(N2CCN(c3nc4ncccc4o3)[C@@H](C)C2)n1 [Example 20, 1R-[4-(3S-Methyl-4-oxazolo[4,5-b]pyridin-2-yl-piperazin-1-yl)-pyrimidin-2-yl]-ethanol]
The melting point of the first is higher: 212 to 215 °C for the first, 158 to 161 °C for the second.

First: C[C@@H]1CN(c2nc3ncccc3o2)C[C@H](C)N1c1ccnc([C@@H](C)O)n1 [Example 31, 1R-[4-(2R,6S-Dimethyl-4-oxazolo-[4,5-b]pyridin-2-yl-piperazin-1-yl)-pyrimidin-2-yl]-ethanol]
Second: C[C@@H]1CN(c2ncnc(-c3ccccc3)n2)C[C@H](C)N1c1ccnc([C@@H](C)O)n1 [Example 215]
The melting point of the first is higher: 231 to 233 °C for the first, 133 to 134 °C for the second.

First: C[C@@H](O)c1nccc(N2C[C@@H]3C[C@H]2CN3S(=O)(=O)c2cccs2)n1 [Example 116]
Second: C[C@@H]1CN(c2ccnc([C@@H](C)O)n2)C[C@H](C)N1C(=O)C1CCCCC1 [Example 131, Cyclohexyl-{4-[2-(1R-hydroxy-ethyl)-pyrimidin-4-yl]-2R,6S-dimethyl-piperazin-1-yl}-methanone]
The melting point of the first is lower: 84 to 86 °C for the first, 174 to 175 °C for the second.

First: C[C@@H](O)c1nccc(N2CCc3c(nc(-c4ccccc4)nc3-c3ccccc3)C2)n1 [Example 91]
Second: C[C@@H](O)c1nccc(N2CCC(=C(c3ccccc3)c3ccccc3)CC2)n1 [Example 180]
The melting point of the first is lower: 73 to 75 °C for the first, 108 to 109 °C for the second.

In the case of COc1nc(C)nc(N2[C@H](C)CN(c3ccnc([C@@H](C)O)n3)C[C@@H]2C)n1 [Example 213, 1R-{4-[4-(4-Methoxy-6-methyl-[1,3,5]triazin-2-yl)-3R,5S-dimethylpiperazin-1-yl]-pyrimidin-2-yl}-ethanol], the melting point is reported as 161 to 162 °C.
